# Results: patent US8808692B2, “Compositions comprising immunoreactive reagents and saponins, and methods of use thereof” (CSL Limited, priority 2001, dated 2014)
# What was measured:
# [1] = cited from earlier work; for level of antibody response induced: mice, antigens bovine serum albumin and cytochrome b5; for IgG2a response to cytochrome b5: saponin doses of 20 μg
# [2] = system: target cells (E.G7-OVA or MO4); assay: Enhancement of antibody mediated lysis in vitro (51Cr-labeled target cells); assay type: cell-based, mice; conditions: splenocytes incubated with 1 to 10 ug/ml QS-21 for 24 to 72 hours; monoclonal antibody to SIINFEKL/Class I MHC 1 to 10 ug/ml
# Protocol: Murine splenocytes (effector cells) are generated from the spleens of naive 6-8week old mice. These effector cells are incubated with 1 to 10 ug/ml of QS-21 or appropriate amount of another immunomodulatory saponin for 24 to 72 hours. At the end of the incubation period, target cells (E.G7-OVA or MO4) are loaded with 51 Cr. Effector cells and labeled target cells are incubated at defined effector:target ratios in the presence and absence of monoclonal antibody to SIINFEKL (SEQ ID NO: 1)/Class I MHC (1 to 10 ug/ml) at […] for 30 to 60minutes. The lysis in the presence of QS-21 and monoclonal is compared to controls without QS-21, without monoclonal, or both.
# [3] = system: MO4 tumor or EG7-OVA tumor; assay: Tumor challenge model; assay type: in vivo, C57B1/6 mice; conditions: QS-21 (10-20 ug) with monoclonal antibody vs monoclonal antibody alone; 30 to 60 day period
# Protocol: C57B1/6 mice are inoculated by s.c. route in the flank with MO4 tumor (1 ×10^5) or EG7-OVA tumor. At 24 to 48 hours after inoculation, mice are injected by IP route with a monoclonal antibody to SIINFEKL (SEQ ID NO: 1)/Class I MHC , or by local SC route in the presence or absence of QS-21 (10 -20 ug). The antitumor effect of the QS-21/monoclonal antibody treatment is compared to that of monoclonal antibody treatment by monitoring the growth of the tumors over a 30 to 60 day period (measurement with calipers). Survival was determined, and significance with respect to time to death was assessed using Cox regression analysis. Mice were also observed daily for signs of toxicity including level of activity, ruffled fur, diarrhea, and general appearance. […] Models and methods for evaluation of the effects of saponins and antibodies, or other immunoreactive reagents are known in the art. (Wooldridge et al., Blood, 1997, 89 (8): 2994-2998, incorporated by reference herein in its entirety).
# [4] = system: S. pneumonia or S. aureus; assay: Opsonophagocytosis assay with HL-60 effector cells; assay type: cell-based; conditions: HL-60 effector cells incubated with QS-21, at a given antibody titer
# [5] = system: Fc α R, Fc gamma R1, Fc gamma RII or Fc gamma RIII; assay: Upregulation of Fc receptors (FACScan); assay type: cell-based; conditions: QS-21 for example 1-10 ug/ml
# Protocol: Monocytes, natural killer cells, or polymorphonuclear cells are incubated in the presence or absence of QS-21 (for example 1-10 ug/ml). The trypsinized cells are incubated at 4° C. for 60 min with monoclonal antibodies specific to Fc α R, Fc gamma R1, Fc gamma RII or Fc gamma RIII. The cells are then incubated with an anti-mouse IgG FITC probe, washed, fixed in paraformaldehyde, and analyzed by FACScan.
# macrophage cells = assay: Cytokine production in macrophage cells; assay type: cell-based
# [6] = system: bone marrow derived dendritic cells; assay: Cytokine production in bone marrow derived dendritic cells; assay type: cell-based
# [7] = melanoma patients; cited from earlier work
# [8] = mouse, in vivo; cited from earlier work
Substance,level of antibody response induced [1],IgG2a response to cytochrome b5 [1],lysis due to QS-21/monoclonal over monoclonal alone [2],tumor progression [3],opsonization of bacteria [4],"Fc receptors on monocytes, natural killer cells, or polymorphonuclear cells [5]",IL-6 (macrophage cells),MIP-1-alpha (macrophage cells),TNF-alpha (macrophage cells),production of II-12 [6],production of IL-1 [6],production of MIP-1-alpha [6],production of MIP-1-beta [6],serological response to MELIMMUNE-1 [7],toxicity in mice [8]
QS-17,comparable to other commonly used adjuvants,stimulate IgG2a response,–,–,–,–,–,–,–,–,–,–,–,–,–
QS-18,comparable to other commonly used adjuvants,stimulate IgG2a response,–,–,–,–,–,–,–,–,–,–,–,–,–
QS-21,comparable to other commonly used adjuvants,stimulate IgG2a response,enhanced lysis,delay in tumor progression,Improved opsonization,Upregulation,upregulation,upregulation,upregulation,decrease the production,increase production,increase production,decrease the production,significantly increased,least toxic
